Measurements taken from article PMC4303209, “A novel phosphatidylinositol 3-kinase (PI3K) inhibitor directs a potent FOXO-dependent, p53-independent cell cycle arrest phenotype characterized by the differential induction of a subset of FOXO-regulated genes” (Breast Cancer Research : BCR, 2014).

Test system: MCF-7 breast cancer cells
Experiment: Microarray gene expression analysis (Agilent whole human genome 4 x 44K; compound vs DMSO, LIMMA log2 fold change)
Format: cell-based
Details: cell cycle genes

For `Cn1ncc2c(N3CCOCC3)nc(-c3cccc(O)c3)nc21` [ETP-45658], the “MLF1 log2FC” value (Gene 4291) was 0.627, the “MLH1 log2FC” value (Gene 4292) was 0.538 and the “MAP3K11 log2FC” value (Gene 4296) was -0.949. For the same molecule, the “MNAT1 log2FC” value (Gene 4331) was 0.729, the “MNT log2FC” value (Gene 4335) was 1.624 and the “MOS log2FC” value (Gene 4342) was -0.164. The “MRE11A log2FC” value (Gene 4361) was 0.332, the “MSH2 log2FC” value (Gene 4436) was 0.939 and the “MSH3 log2FC” value (Gene 4437) was 0.739. For the same molecule, the “MSH4 log2FC” value (Gene 4438) was -0.048, the “MSX1 log2FC” value (Gene 4487) was -0.324 and the “MSX2 log2FC” value (Gene 4488) was 0.054. For the same molecule, the “MUC1 log2FC” value (Gene 4582) was -0.901, the “TRIM37 log2FC” value (Gene 4591) was 0.868 and the “MX2 log2FC” value (Gene 4600) was -0.054. For the same molecule, the “MYB log2FC” value (Gene 4602) was 0.452, the “MYBL2 log2FC” value (Gene 4605) was -0.545 and the “MYC log2FC” value (Gene 4609) was 0.554. The “GADD45B log2FC” value (Gene 4616) was 0.642, the “MYH9 log2FC” value (Gene 4627) was -0.364 and the “MYH10 log2FC” value (Gene 4628) was -0.039. The “PPP1R12A log2FC” value (Gene 4659) was 0.489, the “PPP1R12B log2FC” value (Gene 4660) was 0.389 and the “NUBP1 log2FC” value (Gene 4682) was -0.227. For the same molecule, the “NBN log2FC” value (Gene 4683) was 0.839, the “NEDD9 log2FC” value (Gene 4739) was -0.017 and the “NEK1 log2FC” value (Gene 4750) was 0.621. For the same molecule, the “NEK2 log2FC” value (Gene 4751) was 0.969, the “NEUROD1 log2FC” value (Gene 4760) was -0.043 and the “NGFR log2FC” value (Gene 4804) was -0.063. For the same molecule, the “NOTCH2 log2FC” value (Gene 4853) was 0.166, the “NPAT log2FC” value (Gene 4863) was 0.585 and the “NPM1 log2FC” value (Gene 4869) was 0.586. For the same molecule, the “NUP88 log2FC” value (Gene 4927) was 0.539, the “ODF2 log2FC” value (Gene 4957) was -0.215 and the “OSM log2FC” value (Gene 5008) was 0.056. For the same molecule, the “OVOL1 log2FC” value (Gene 5017) was -0.043, the “PAFAH1B1 log2FC” value (Gene 5048) was 0.720 and the “PAK1 log2FC” value (Gene 5058) was 0.117. For the same molecule, the “PAK3 log2FC” value (Gene 5063) was 0.230, the “PCM1 log2FC” value (Gene 5108) was 0.687 and the “PCNT log2FC” value (Gene 5116) was 0.317. The “PDGFB log2FC” value (Gene 5155) was -0.598, the “PDGFRB log2FC” value (Gene 5159) was 0.022 and the “PGGT1B log2FC” value (Gene 5229) was -0.232. The “ABCB1 log2FC” value (Gene 5243) was -0.025, the “PIK3C3 log2FC” value (Gene 5289) was 1.044 and the “PIM1 log2FC” value (Gene 5292) was 1.131. For the same molecule, the “PIN1 log2FC” value (Gene 5300) was -0.195, the “PKD1 log2FC” value (Gene 5310) was 0.265 and the “PKD2 log2FC” value (Gene 5311) was 0.346. For the same molecule, the “PKHD1 log2FC” value (Gene 5314) was -0.057, the “PLAGL1 log2FC” value (Gene 5325) was 0.310 and the “PML log2FC” value (Gene 5371) was -0.804. For the same molecule, the “PMS1 log2FC” value (Gene 5378) was 0.682, the “PMS2 log2FC” value (Gene 5395) was 0.442 and the “POLD1 log2FC” value (Gene 5424) was 0.148. The “POLE log2FC” value (Gene 5426) was -0.223, the “PPAT log2FC” value (Gene 5471) was 0.243 and the “PPM1A log2FC” value (Gene 5494) was 0.474. The “PPP1CB log2FC” value (Gene 5500) was 1.012, the “PPP1CC log2FC” value (Gene 5501) was 0.572 and the “PPP2R1A log2FC” value (Gene 5518) was -0.055. For the same molecule, the “PPP2R2A log2FC” value (Gene 5520) was 0.059, the “PPP2R4 log2FC” value (Gene 5524) was -0.446 and the “PPP2R5C log2FC” value (Gene 5527) was 0.888. For the same molecule, the “PPP3CA log2FC” value (Gene 5530) was 0.422, the “PPP5C log2FC” value (Gene 5536) was -0.138 and the “PPP6C log2FC” value (Gene 5537) was -0.352. The “PRCC log2FC” value (Gene 5546) was -0.798, the “PRIM1 log2FC” value (Gene 5557) was 0.636 and the “PRKAA1 log2FC” value (Gene 5562) was 0.429. The “PRKAA2 log2FC” value (Gene 5563) was 0.082, the “PRKAB1 log2FC” value (Gene 5564) was 0.427 and the “PRKAB2 log2FC” value (Gene 5565) was 1.177. For the same molecule, the “PRKACA log2FC” value (Gene 5566) was -0.596, the “PKIA log2FC” value (Gene 5569) was -0.378 and the “PRKAG1 log2FC” value (Gene 5571) was 0.238. For the same molecule, the “PRKAR1A log2FC” value (Gene 5573) was 0.532, the “PRKAR2B log2FC” value (Gene 5577) was 0.565 and the “PRKCA log2FC” value (Gene 5578) was -0.217. The “PRKCD log2FC” value (Gene 5580) was -0.079, the “PRKCE log2FC” value (Gene 5581) was -0.042 and the “PKN2 log2FC” value (Gene 5586) was 0.510. For the same molecule, the “MAPK1 log2FC” value (Gene 5594) was -0.045, the “MAPK3 log2FC” value (Gene 5595) was -0.190 and the “MAPK13 log2FC” value (Gene 5603) was -0.354. For the same molecule, the “MAP2K1 log2FC” value (Gene 5604) was -0.107, the “MAP2K6 log2FC” value (Gene 5608) was 0.116 and the “PROX1 log2FC” value (Gene 5629) was 0.206. For the same molecule, the “KLK10 log2FC” value (Gene 5655) was -0.446, the “PSMA1 log2FC” value (Gene 5682) was 0.045 and the “PSMA4 log2FC” value (Gene 5685) was 0.609. The “PSMA6 log2FC” value (Gene 5687) was 0.200, the “PSMB1 log2FC” value (Gene 5689) was 0.085 and the “PSMB2 log2FC” value (Gene 5690) was -0.547. For the same molecule, the “PSMB3 log2FC” value (Gene 5691) was -0.030, the “PSMB5 log2FC” value (Gene 5693) was -0.298 and the “PSMB6 log2FC” value (Gene 5694) was -0.120. For the same molecule, the “PSMB8 log2FC” value (Gene 5696) was -0.045, the “PSMC1 log2FC” value (Gene 5700) was 0.172 and the “PSMC2 log2FC” value (Gene 5701) was 0.576. The “PSMC5 log2FC” value (Gene 5705) was -0.327, the “PSMC6 log2FC” value (Gene 5706) was 0.776 and the “PSMD2 log2FC” value (Gene 5708) was 0.090. The “PSMD3 log2FC” value (Gene 5709) was -0.109, the “PSMD4 log2FC” value (Gene 5710) was -0.086 and the “PSMD5 log2FC” value (Gene 5711) was 0.388. For the same molecule, the “PSMD7 log2FC” value (Gene 5713) was 0.182, the “PSMD9 log2FC” value (Gene 5715) was -0.171 and the “PSMD12 log2FC” value (Gene 5718) was -0.582. For the same molecule, the “PSMD13 log2FC” value (Gene 5719) was -0.031, the “PSME2 log2FC” value (Gene 5721) was 0.039 and the “PTEN log2FC” value (Gene 5728) was 1.014. For the same molecule, the “PTGS2 log2FC” value (Gene 5743) was -0.151, the “PTPN3 log2FC” value (Gene 5774) was -0.174 and the “PTPN6 log2FC” value (Gene 5777) was 0.120. The “PTPRC log2FC” value (Gene 5788) was -0.053, the “PTPRK log2FC” value (Gene 5796) was 0.583 and the “RAD1 log2FC” value (Gene 5810) was -0.104. For the same molecule, the “RAD9A log2FC” value (Gene 5883) was 0.686, the “RAD17 log2FC” value (Gene 5884) was 1.203 and the “RAD21 log2FC” value (Gene 5885) was 1.043. The “RAD51 log2FC” value (Gene 5888) was -0.360, the “RAD52 log2FC” value (Gene 5893) was 0.105 and the “RAN log2FC” value (Gene 5901) was 0.119. The “RANBP1 log2FC” value (Gene 5902) was -0.137, the “RANBP2 log2FC” value (Gene 5903) was 0.605 and the “RARA log2FC” value (Gene 5914) was -0.580. The “RASA1 log2FC” value (Gene 5921) was 0.488, the “RB1 log2FC” value (Gene 5925) was 0.746 and the “RBL2 log2FC” value (Gene 5934) was 0.480. The “RFC1 log2FC” value (Gene 5981) was 1.105, the “RFC2 log2FC” value (Gene 5982) was 0.117 and the “RFC5 log2FC” value (Gene 5985) was 0.243. The “RGS2 log2FC” value (Gene 5997) was -2.314, the “RHEB log2FC” value (Gene 6009) was 0.421 and the “RNF2 log2FC” value (Gene 6045) was -0.048. The “RNF4 log2FC” value (Gene 6047) was -0.426, the “RPA3 log2FC” value (Gene 6119) was 0.162 and the “RPS6KA2 log2FC” value (Gene 6196) was 0.035. For the same molecule, the “RPS6KA3 log2FC” value (Gene 6197) was 0.412, the “RPS15A log2FC” value (Gene 6210) was 0.277 and the “RPS27 log2FC” value (Gene 6232) was 0.416. The “RPS27A log2FC” value (Gene 6233) was 0.401, the “RRM1 log2FC” value (Gene 6240) was 0.612 and the “RRM2 log2FC” value (Gene 6241) was -0.808. For the same molecule, the “SETMAR log2FC” value (Gene 6419) was -0.171, the “SIAH2 log2FC” value (Gene 6478) was -0.579 and the “SKP2 log2FC” value (Gene 6502) was -1.072. For the same molecule, the “SMARCA4 log2FC” value (Gene 6597) was -0.352, the “SOX2 log2FC” value (Gene 6657) was 0.298 and the “SOX9 log2FC” value (Gene 6662) was -2.381. The “SPAST log2FC” value (Gene 6683) was 0.519, the “SPTBN1 log2FC” value (Gene 6711) was 0.111 and the “SRPK2 log2FC” value (Gene 6733) was 0.850. For the same molecule, the “TRIM21 log2FC” value (Gene 6737) was -0.066.
